Measured values published in patent publication US8420657B2 (Novartis AG, priority 2008, dated 2013).
pIC50: −log10 of the molar value.

Experiments:
[1] = molecular target: T1, GST-JAK2(808-1132) (Homo sapiens, UniProt O60674); experiment: JAK2 kinase assay (Caliper mobility shift, LabChip 3000); type: biochemical
T1 construct: GST-JAK2(808-1132); purchased Invitrogen (Carlsbad, USA) #4288
In short: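 Recombinant GST-JAK2(808-1132) kinase domain with FITC-labelled JAK3tide peptide substrate and ATP; 60 min at 30 °C, EDTA stop. Substrate/product ratio read by microfluidic mobility shift; compounds at 8 final concentrations, 10 to 0.003 μM.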

[2] = tested on: JAK1/JAK2-dependent nuclear translocation of STAT1-GFP in HT1080 fibrosarcoma cells; experiment: STAT1 nuclear translocation assay (Cellomics), IFN-γ stimulated HT1080 STAT1-GFP cells; type: cell-based; conditions: Homo sapiens, HT-1080, STAT1 translocation pathway
In short: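 HT1080 cells stably expressing STAT1-GFP, pre-treated 30 min with compound (10 μM–0.003 μM, 0.1% DMSO), then stimulated 2 h with 100 ng/ml IFN-γ, fixed and Hoechst-stained. Nuclear-cytoplasmic GFP differential imaged over ≥1000 cells/well, normalised to unstimulated and DMSO-stimulated wells for IC50.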

T1 sequence (O60674 808-1132): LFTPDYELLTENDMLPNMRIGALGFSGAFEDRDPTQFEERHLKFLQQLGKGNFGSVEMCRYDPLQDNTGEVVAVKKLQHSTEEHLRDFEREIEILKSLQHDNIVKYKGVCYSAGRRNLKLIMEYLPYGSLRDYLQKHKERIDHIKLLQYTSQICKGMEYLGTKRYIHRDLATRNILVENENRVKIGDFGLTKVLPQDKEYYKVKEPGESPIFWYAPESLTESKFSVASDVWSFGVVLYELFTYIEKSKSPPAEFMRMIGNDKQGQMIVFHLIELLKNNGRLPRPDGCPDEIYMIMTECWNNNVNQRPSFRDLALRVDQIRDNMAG

Structure (SMILES)	pIC50 [1]	pIC50 [2]
CS(=O)(=O)c1ccc(-n2ccc3cnc(Nc4ccc(C(=O)NCCN5CCOCC5)cc4)nc32)cc1 [Example 67, 4-[7-(4-Methanesulfonyl-phenyl)-7H-pyrrolo[2,3-d]pyrimidin-2-ylamino]-N-(2-morpholin-4-yl-ethyl)-benzamide]	> 8.52	7.41
CN(C)CCNC(=O)c1ccc(Nc2ncc3ccn(-c4ccc(S(C)(=O)=O)cc4)c3n2)cc1 [Example 40, N-(2-Dimethylamino-ethyl)-4-[7-(4-methanesulfonyl-phenyl)-7H-pyrrolo[2,3-d]pyrimidin-2-ylamino]-benzamide]	> 8.52	6.81
Cc1ccc(Nc2ncc3ccn(-c4ccc(CC(=O)N5CCN(CCO)CC5)cc4)c3n2)cc1C [Example 212, 2-{4-[2-(3,4-Dimethyl-phenylamino)-pyrrolo[2,3-d]pyrimidin-7-yl]-phenyl}-1-[4-(2-hydroxy-ethyl)-piperazin-1-yl]-ethanone]	> 8.52	6.98
CS(=O)(=O)c1ccc(-n2ccc3cnc(Nc4ccc(Cn5ccnc5)cc4)nc32)cc1 [Example 43, (4-Imidazol-1-ylmethyl-phenyl)-[7-(4-methanesulfonyl-phenyl)-7H-pyrrolo[2,3-d]pyrimidin-2-yl]-amine]	> 8.52	6.46
CC(=O)c1ccc(-n2ccc3cnc(Nc4ccc(F)cc4)nc32)cc1 [Example 60, 1-{4-[2-(4-Fluoro-phenylamino)-pyrrolo[2,3-d]pyrimidin-7-yl]-phenyl}-ethanone]	8.09	5.39
CC(=O)c1ccc(-n2ccc3cnc(Nc4ccc(OC(C)C)cc4)nc32)cc1 [Example 86, 11-{4-[2-(4-Isopropoxy-phenylamino)-pyrrolo[2,3-d]pyrimidin-7-yl]-phenyl}-ethanone]	8.10	4.89
CCOc1ccc(Nc2ncc3ccn(-c4ccc(S(C)(=O)=O)cc4)c3n2)cc1OCC [Example 1, (3,4-Diethoxy-phenyl)-[7-(4-methanesulfonyl-phenyl)-7H-pyrrolo[2,3-d]pyrimidin-2-yl]-amine]	> 8.52	7.36
CC(C)Oc1ccc(Nc2ncc3ccn(-c4ccc(C5(C(=O)N6CCOCC6)CC5)cc4)c3n2)cc1 [Example 84, (1-{4-[2-(4-Isopropoxy-phenylamino)-pyrrolo[2,3-d]pyrimidin-7-yl]-phenyl}-cyclopropyl)-morpholin-4-yl-methanone]	> 8.52	6.56
COc1ccc(Nc2ncc3ccn(-c4ccc(C(=O)NC(C)(C)C)cc4)c3n2)cc1OC [Example 7, N-tert-Butyl-4-[2-(3,4-dimethoxy-phenylamino)-pyrrolo[2,3-d]pyrimidin-7-yl]-benzamide]	8.21	6.59
CS(=O)(=O)c1ccc(-n2ccc3cnc(Nc4cccc(CN5CCCCC5)c4)nc32)cc1 [Example 41, [7-(4-Methanesulfonyl-phenyl)-7H-pyrrolo[2,3-d]pyrimidin-2-yl]-(3-piperidin-1-ylmethyl-phenyl)-amine]	> 8.52	7.12
CC(C)Oc1ccc(Nc2ncc3ccn(-c4ccc(C(=O)N5CCOCC5)c(Cl)c4)c3n2)cc1 [Example 99, {2-Chloro-4-[2-(4-isopropoxy-phenylamino)-pyrrolo[2,3-d]pyrimidin-7-yl]-phenyl}-morpholin-4-yl-methanone]	8.41	6.26
Cc1cc(Nc2ncc3ccn(-c4ccc(S(C)(=O)=O)cc4)c3n2)ccc1C(=O)N1CCN(C)CC1 [Example 73, {4-[7-(4-Methanesulfonyl-phenyl)-7H-pyrrolo[2,3-d]pyrimidin-2-ylamino]-2-methyl-phenyl}-(4-methyl-piperazin-1-yl)-methanone]	> 8.52	7.09

Other lines, results leading:

pIC50 [1]	pIC50 [2]	Structure (SMILES)
> 8.52	6.56	O=C(c1ccc(Nc2ncc3ccn(-c4ccc(CN5CCOCC5)c(Cl)c4)c3n2)cc1)N1CCOCC1 [Example 175, {4-[7-(3-Chloro-4-morpholin-4-ylmethyl-phenyl)-7H-pyrrolo[2,3-d]pyrimidin-2-ylamino]-phenyl}-morpholin-4-yl-methanone]
8.15	6.89	Cn1cc(Nc2ncc3ccn(-c4ccc(C(=O)N5CCOCC5)cc4)c3n2)cn1 [Example 253, {4-[2-(1-Methyl-1H-pyrazol-4-ylamino)-pyrrolo[2,3-d]pyrimidin-7-yl]-phenyl}-morpholin-4-yl-methanone]
> 8.52	7.00	COc1cc(Nc2ncc3ccn(-c4ccc(CC(=O)N5CCOCC5)cc4)c3n2)ccc1F [Example 142, 2-{4-[2-(4-Fluoro-3-methoxy-phenylamino)-pyrrolo[2,3-d]pyrimidin-7-yl]-phenyl}-1-morpholin-4-yl-ethanone]
7.97	6.55	CCOc1ccc(Nc2ncc3cc(C)n(-c4ccc(CC(=O)N5CCS(=O)(=O)CC5)c(F)c4)c3n2)cc1OCC [Example 286, 2-{4-[2-(3,4-Diethoxy-phenylamino)-6-methyl-pyrrolo[2,3-d]pyrimidin-7-yl]-2-fluoro-phenyl}-1-(1,1-dioxido-thiomorpholin-4-yl)-ethanone]
7.69	5.73	CCN1CCN(Cc2c(F)cc(-n3ccc4cnc(Nc5ccc(F)c(C)c5)nc43)cc2F)CC1=O [Example 134, 4-{2,6-Difluoro-4-[2-(4-fluoro-3-methyl-phenylamino)-pyrrolo[2,3-d]pyrimidin-7-yl]-benzyl}-1-ethyl-piperazin-2-one]
> 8.52	7.26	Fc1cc(-n2ccc3cnc(Nc4ccc(N5CCNCC5)nc4)nc32)cc(F)c1CN1CCOCC1 [Example 263, [7-(3,5-Difluoro-4-morpholin-4-ylmethyl-phenyl)-7H-pyrrolo[2,3-d]pyrimidin-2-yl]-(6-piperazin-1-yl-pyridin-3-yl)-amine]
8.41	6.18	COCc1ccc(Nc2ncc3ccn(-c4ccc(C(=O)N5CCOCC5)cc4)c3n2)cc1 [Example 239, {4-[2-(4-Methoxymethyl-phenylamino)-pyrrolo[2,3-d]pyrimidin-7-yl]-phenyl}-morpholin-4-yl-methanone]
8.48	6.47	COCCn1cc(Nc2ncc3ccn(-c4cc(F)c(CN5CCOCC5)c(F)c4)c3n2)cn1 [Example 252, [7-(3,5-Difluoro-4-morpholin-4-ylmethyl-phenyl)-7H-pyrrolo[2,3-d]pyrimidin-2-yl]-[1-(2-methoxy-ethyl)-1H-pyrazol-4-yl]-amine]
6.94	5.08	CCN1CCN(Cc2c(F)cc(-n3ccc4cnc(Nc5ccc(C)c(Cl)c5)nc43)cc2F)CC1 [Example 130, (3-Chloro-4-methyl-phenyl)-{7-[4-(4-ethyl-piperazin-1-ylmethyl)-3,5-difluoro-phenyl]-7H-pyrrolo[2,3-d]pyrimidin-2-yl}-amine]
8.48	6.24	O=C(c1c(F)cc(-n2ccc3cnc(Nc4cccnc4)nc32)cc1F)N1CCOCC1 [Example 216, {2,6-Difluoro-4-[2-(pyridin-3-ylamino)-pyrrolo[2,3-d]pyrimidin-7-yl]-phenyl}-morpholin-4-yl-methanone]
7.92	6.74	C[C@@H]1CN(Cc2ccc(Nc3ncc4ccn(-c5cc(F)c(C(=O)N6CCOCC6)c(F)c5)c4n3)cc2)[C@@H](C)CN1 (racemic) [Example 261, (4-{2-[4-((2S,5R)-2,5-Dimethyl-piperazin-1-ylmethyl)-phenylamino]-pyrrolo[2,3-d]pyrimidin-7-yl}-2,6-difluoro-phenyl)-morpholin-4-yl-methanone]
7.85	6.92	COc1cc(Nc2ncc3ccn(-c4cc(F)c(CN5CCOCC5)c(F)c4)c3n2)ccc1C [Example 307, [7-(3,5-Difluoro-4-morpholin-4-ylmethyl-phenyl)-7H-pyrrolo[2,3-d]pyrimidin-2-yl]-(3-methoxy-4-methyl-phenyl)-amine]
8.51	7.19	C[C@@H]1CN[C@@H](C)CN1c1ccc(Nc2ncc3ccn(-c4cc(F)c(CN5CCOCC5)c(F)c4)c3n2)cn1 (racemic) [Example 271, [7-(3,5-Difluoro-4-morpholin-4-ylmethyl-phenyl)-7H-pyrrolo[2,3-d]pyrimidin-2-yl]-[6-((2R,5S)-2,5-dimethyl-piperazin-1-yl)-pyridin-3-yl]-amine]
7.33	6.36	CCOc1ccc(Nc2ncc3cc(C)n(-c4ccc(C(=O)N5CCOCC5)c(F)c4)c3n2)cc1OCC [Example 287, {4-[2-(3,4-Diethoxy-phenylamino)-6-methyl-pyrrolo[2,3-d]pyrimidin-7-yl]-2-fluoro-phenyl}-morpholin-4-yl-methanone]
8.48	6.78	Cc1cc(Nc2ncc3ccn(-c4ccc(C5(C(=O)N6CCN(C)CC6)CC5)cc4)c3n2)ccc1F [Example 122, (1-{4-[2-(4-Fluoro-3-methyl-phenylamino)-pyrrolo[2,3-d]pyrimidin-7-yl]-phenyl}-cyclopropyl)-(4-methyl-piperazin-1-yl)-methanone]
